Reference: ChEMBL document CHEMBL1140952 (J Med Chem, 2009)

How the values were obtained:
[1] = Antiproliferative activity against Met-dependent human GTL16 cells after 72 hrs by MTS assay; assay type: functional, cell-based; details: GTL 16, 72 h
[2] = biological target: Hepatocyte growth factor receptor (Homo sapiens, UniProt P08581); assay: Inhibition of MET
Cytochrome P450 3A4 = Cytochrome P450 3A4 (Homo sapiens, UniProt P08684); assay: Inhibition of CYP3A4; assay type: ADME
Cytochrome P450 1A2 = Cytochrome P450 1A2 (Homo sapiens, UniProt P05177); assay: Inhibition of CYP1A2; assay type: ADME
[3] = Metabolic stability in mouse liver microsomes assessed per mg of protein; assay type: ADME, Microsome
Cytochrome P450 2D6 = Cytochrome P450 2D6 (Homo sapiens, UniProt P10635); assay: Inhibition of CYP2D6; assay type: ADME
Cytochrome P450 2C19 = Cytochrome P450 2C19 (Homo sapiens, UniProt P33261); assay: Inhibition of CYP2C19; assay type: ADME
Cytochrome P450 2C9 = Cytochrome P450 2C9 (Homo sapiens, UniProt P11712); assay: Inhibition of CYP2C9; assay type: ADME
Chain of Cytochrome P450 2C9 (P11712 whole entry): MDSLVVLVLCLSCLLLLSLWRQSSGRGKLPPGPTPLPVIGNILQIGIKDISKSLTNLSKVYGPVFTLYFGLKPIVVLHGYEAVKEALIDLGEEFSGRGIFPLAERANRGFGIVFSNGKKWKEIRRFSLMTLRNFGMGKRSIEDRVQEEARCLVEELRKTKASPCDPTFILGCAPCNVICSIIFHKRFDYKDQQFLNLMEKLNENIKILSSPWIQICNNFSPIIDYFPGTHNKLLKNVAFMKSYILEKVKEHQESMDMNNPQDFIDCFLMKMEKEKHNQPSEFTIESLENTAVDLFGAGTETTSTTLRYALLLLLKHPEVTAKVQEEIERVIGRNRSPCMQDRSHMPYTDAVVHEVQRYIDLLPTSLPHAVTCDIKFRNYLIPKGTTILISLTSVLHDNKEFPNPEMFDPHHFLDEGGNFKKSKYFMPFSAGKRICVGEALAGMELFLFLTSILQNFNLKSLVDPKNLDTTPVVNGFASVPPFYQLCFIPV

Chain of Hepatocyte growth factor receptor (P08581 whole entry): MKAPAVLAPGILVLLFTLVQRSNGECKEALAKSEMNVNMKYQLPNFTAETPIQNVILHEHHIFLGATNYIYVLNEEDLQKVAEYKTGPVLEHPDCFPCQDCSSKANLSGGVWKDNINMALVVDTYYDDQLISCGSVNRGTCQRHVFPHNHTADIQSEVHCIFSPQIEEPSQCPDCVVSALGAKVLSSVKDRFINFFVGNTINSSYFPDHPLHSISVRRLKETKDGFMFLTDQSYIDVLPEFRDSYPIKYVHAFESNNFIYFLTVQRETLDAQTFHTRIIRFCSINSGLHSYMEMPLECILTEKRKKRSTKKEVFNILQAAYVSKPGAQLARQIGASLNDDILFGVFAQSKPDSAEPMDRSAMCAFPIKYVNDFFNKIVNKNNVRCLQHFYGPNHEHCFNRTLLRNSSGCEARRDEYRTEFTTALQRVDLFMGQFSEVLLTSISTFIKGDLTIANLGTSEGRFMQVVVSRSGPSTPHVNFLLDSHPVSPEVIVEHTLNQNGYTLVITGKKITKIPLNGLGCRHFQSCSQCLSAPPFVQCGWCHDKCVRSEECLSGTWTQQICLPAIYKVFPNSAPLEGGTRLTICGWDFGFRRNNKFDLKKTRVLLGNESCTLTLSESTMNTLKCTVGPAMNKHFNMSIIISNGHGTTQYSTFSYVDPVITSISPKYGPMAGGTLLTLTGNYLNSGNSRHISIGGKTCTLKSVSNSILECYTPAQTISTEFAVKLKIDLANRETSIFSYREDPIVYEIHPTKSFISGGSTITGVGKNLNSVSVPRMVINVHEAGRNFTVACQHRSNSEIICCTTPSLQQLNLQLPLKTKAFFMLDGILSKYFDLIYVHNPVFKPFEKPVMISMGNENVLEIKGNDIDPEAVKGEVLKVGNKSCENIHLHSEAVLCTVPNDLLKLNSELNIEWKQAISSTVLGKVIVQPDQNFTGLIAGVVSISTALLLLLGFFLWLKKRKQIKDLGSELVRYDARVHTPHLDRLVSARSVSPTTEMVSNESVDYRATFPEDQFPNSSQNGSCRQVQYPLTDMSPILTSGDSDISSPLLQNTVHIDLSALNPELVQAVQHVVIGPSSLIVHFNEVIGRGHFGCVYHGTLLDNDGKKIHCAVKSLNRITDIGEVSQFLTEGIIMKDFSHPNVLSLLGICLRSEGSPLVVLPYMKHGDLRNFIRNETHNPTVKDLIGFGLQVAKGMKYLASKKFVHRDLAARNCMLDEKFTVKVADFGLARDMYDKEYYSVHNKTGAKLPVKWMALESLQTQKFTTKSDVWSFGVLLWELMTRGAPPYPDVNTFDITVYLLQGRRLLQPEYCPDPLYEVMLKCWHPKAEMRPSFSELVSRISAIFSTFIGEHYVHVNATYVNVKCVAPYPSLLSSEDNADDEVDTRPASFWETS
Chain of Cytochrome P450 3A4 (P08684 whole entry): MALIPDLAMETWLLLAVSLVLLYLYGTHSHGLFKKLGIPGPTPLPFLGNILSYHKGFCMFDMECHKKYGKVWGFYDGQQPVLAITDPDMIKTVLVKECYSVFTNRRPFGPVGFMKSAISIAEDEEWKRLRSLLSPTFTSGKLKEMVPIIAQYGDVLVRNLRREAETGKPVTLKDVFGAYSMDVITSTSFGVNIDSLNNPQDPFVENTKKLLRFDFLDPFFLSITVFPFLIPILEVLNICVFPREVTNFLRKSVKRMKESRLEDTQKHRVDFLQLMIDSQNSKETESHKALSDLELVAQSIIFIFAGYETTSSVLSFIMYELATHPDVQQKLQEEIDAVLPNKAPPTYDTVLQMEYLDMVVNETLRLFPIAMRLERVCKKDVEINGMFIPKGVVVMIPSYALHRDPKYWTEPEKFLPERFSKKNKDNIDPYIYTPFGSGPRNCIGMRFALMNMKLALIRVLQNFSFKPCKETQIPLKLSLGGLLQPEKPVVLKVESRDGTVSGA
Chain of Cytochrome P450 1A2 (P05177 whole entry): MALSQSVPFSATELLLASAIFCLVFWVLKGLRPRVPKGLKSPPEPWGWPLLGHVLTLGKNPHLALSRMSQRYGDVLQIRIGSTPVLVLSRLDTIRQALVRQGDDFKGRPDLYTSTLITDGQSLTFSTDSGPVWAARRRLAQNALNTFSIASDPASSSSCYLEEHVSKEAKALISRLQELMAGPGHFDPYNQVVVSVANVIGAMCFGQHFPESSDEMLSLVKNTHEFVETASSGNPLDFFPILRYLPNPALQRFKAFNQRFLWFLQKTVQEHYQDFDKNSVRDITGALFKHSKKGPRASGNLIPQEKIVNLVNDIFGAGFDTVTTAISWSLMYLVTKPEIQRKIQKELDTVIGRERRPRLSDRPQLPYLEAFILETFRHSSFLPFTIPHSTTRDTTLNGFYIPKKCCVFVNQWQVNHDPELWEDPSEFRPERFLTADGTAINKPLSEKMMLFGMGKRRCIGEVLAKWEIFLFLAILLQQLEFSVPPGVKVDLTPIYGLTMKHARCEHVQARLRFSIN
Chain of Cytochrome P450 2C19 (P33261 whole entry): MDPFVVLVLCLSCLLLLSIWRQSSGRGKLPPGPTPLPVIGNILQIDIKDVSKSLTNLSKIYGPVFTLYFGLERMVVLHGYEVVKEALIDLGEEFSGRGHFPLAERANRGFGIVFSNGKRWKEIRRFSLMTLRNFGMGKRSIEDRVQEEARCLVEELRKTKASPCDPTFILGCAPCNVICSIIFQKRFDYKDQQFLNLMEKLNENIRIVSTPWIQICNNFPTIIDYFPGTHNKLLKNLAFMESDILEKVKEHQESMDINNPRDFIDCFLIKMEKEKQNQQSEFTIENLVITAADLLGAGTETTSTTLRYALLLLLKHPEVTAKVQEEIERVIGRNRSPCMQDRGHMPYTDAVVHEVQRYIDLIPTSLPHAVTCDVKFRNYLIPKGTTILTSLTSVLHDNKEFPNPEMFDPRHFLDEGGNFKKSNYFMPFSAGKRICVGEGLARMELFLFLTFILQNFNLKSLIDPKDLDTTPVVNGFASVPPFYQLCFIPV
Chain of Cytochrome P450 2D6 (P10635 whole entry): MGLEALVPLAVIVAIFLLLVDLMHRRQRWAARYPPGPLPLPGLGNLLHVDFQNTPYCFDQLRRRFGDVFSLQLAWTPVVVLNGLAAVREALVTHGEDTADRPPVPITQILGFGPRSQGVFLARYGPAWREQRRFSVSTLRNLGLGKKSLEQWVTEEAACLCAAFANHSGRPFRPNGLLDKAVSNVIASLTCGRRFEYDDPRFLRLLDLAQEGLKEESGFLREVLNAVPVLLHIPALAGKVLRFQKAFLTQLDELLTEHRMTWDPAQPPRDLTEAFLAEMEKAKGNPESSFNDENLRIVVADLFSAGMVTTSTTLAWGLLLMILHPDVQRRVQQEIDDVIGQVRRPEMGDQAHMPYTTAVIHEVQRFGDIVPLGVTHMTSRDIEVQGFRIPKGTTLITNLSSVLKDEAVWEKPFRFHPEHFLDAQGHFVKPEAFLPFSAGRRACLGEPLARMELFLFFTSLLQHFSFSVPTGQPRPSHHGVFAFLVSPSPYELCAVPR

Structure (SMILES)	IC50 [1] [nM]	IC50 [2] [nM]	IC50 (Cytochrome P450 3A4) [µM]	IC50 (Cytochrome P450 1A2) [µM]	Activity [3] [nmol/min/mg]	IC50 (Cytochrome P450 2D6) [µM]	IC50 (Cytochrome P450 2C19) [µM]	IC50 (Cytochrome P450 2C9) [µM]
NCC#Cc1c(Oc2ccc(NC(=O)c3cccn(-c4ccc(F)cc4)c3=O)cc2F)ccnc1N	210	3.8						
CC(C)Oc1ccn(-c2ccc(F)cc2)c(=O)c1C(=O)Nc1ccc(Oc2ccnc(N)c2Cl)c(F)c1	140	3.2						
Nc1nccc(Oc2ccc(NC(=O)c3c(OCCO)ccn(-c4ccc(F)cc4)c3=O)cc2F)c1Cl	250	2.6						
C#Cc1c(Oc2ccc(NC(=O)c3cccn(-c4ccc(F)cc4)c3=O)cc2F)ccnc1N	31	1	< 1					
CC(C)c1c(Oc2ccc(NC(=O)c3cccn(-c4ccc(F)cc4)c3=O)cc2F)ccnc1N	120	3.4						
Nc1nccc(Oc2ccc(NC(=O)c3cccn(-c4ccc(F)cc4)c3=O)cc2F)c1Cl	57	1	4	> 20	0.012	> 20	> 20	7
